The record followed here is patent publication US11919902B2, “Aryl-bipyridine amine derivatives as phosphatidylinositol phosphate kinase inhibitors” (HiberCell, Inc., priority 2017, dated 2024).

The target of assay [1] is T1, GST tagged PIP4KtypeIIB (Homo sapiens, UniProt P78356).
T1 construct: made in house; host or cells: E. coli
T1 sequence (P78356 1-416): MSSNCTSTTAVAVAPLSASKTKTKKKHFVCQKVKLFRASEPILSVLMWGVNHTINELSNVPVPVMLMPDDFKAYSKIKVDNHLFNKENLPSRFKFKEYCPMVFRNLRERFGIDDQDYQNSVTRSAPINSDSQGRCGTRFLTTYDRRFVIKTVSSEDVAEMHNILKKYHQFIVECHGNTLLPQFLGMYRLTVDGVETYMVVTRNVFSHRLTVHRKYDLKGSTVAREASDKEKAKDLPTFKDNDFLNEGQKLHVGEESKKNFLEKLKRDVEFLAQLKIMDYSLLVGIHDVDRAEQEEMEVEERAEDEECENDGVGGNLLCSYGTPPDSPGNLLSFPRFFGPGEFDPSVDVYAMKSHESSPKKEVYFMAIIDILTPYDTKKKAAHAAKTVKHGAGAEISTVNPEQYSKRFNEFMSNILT
Description: Trans-FI P kinase assay PIP4K2B (PIP4KtypeIIB inhibition assay). In kind it is biochemical. The following applies: Table 4; compounds listed under IC50 range headings; 100 uM GTP, 5 nM PIP4KIIB; read-out: Trans-FI P kinase assays: PIP4K2B IC50. The method in brief: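 Purified GST-PIP4KIIB (5 nM final), 1 h preincubation with compound at 27 C, then 2 h reaction with 100 uM GTP and 80 uM PI5P plus DOPE carrier lipid in pH 7.3 HEPES/MgCl2/Triton buffer with 5% DMSO. GDP read by Transcreener FI fluorescence against a calibration curve; IC50 from % no-inhibitor activity vs log concentration.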

For assay [2], the target named is T2, PIP4K2A (full length protein, SignalChem) (Homo sapiens, UniProt P48426).
T2 construct: 4 nM PIP4K2A (full length protein, SignalChem); purchased SignalChem
T2 sequence (P48426 1-406): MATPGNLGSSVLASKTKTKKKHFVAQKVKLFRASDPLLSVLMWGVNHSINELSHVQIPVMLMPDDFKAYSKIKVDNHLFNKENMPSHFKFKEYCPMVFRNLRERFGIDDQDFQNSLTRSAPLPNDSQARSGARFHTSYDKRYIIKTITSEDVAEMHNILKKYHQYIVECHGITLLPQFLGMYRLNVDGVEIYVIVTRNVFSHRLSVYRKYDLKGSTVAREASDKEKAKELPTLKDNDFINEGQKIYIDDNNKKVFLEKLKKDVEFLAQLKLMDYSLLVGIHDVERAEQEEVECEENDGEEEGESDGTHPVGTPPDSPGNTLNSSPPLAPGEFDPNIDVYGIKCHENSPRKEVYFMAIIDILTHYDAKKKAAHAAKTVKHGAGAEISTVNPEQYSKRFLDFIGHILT
Description: Kinase Assay PIP4K2 A (Sprint); ADP-Glo biochemical assay. The following applies: Table 2; compounds listed under IC50 range headings. Summed up:
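Compounds (10-point, 3-fold dilutions) were pre-incubated 15 min at RT with an enzyme/substrate mix of 4 nM full-length PIP4K2A and 100 μM PI(5)P diC8 in 20 mM MOPS pH 7.2, 25 mM MgCl2, 0.005% Tween 20. A 60 μM ATP solution was added, reaction 1 h RT; ADP read by ADP-Glo luminescence, IC50 fitted from % inhibition vs DMSO.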
(ADP-Glo turns the ADP formed in a reaction into a luminescent signal.)

A value given as a limit tells only on which side of the number the result lay.

As to `CC(C)c1conc1-c1ccc(-c2cncc(-c3ccnc4c3cc3n4CCN(C)C3=O)c2)cc1` [Example 375, 4-(5-(4-(4-isopropylisoxazol-3-yl)phenyl)pyridin-3-yl)-7-methyl-8,9-dihydropyrido[3′,2′:4,5]pyrrolo[1,2-a]pyrazin-6(7H)-one], the IC50 – broadly, the concentration that inhibits the measured activity by half – in assay [1] fell in the range of 10 to 100 nM; in assay [2] it was 100 to 1000 nM.
Taken in the same sequence, the figures for `CN1CCn2c(cc3c(-c4cncc(-c5ccc(-c6nncn6CC6CC6)cc5)c4)ccnc32)C1=O` [Example 376, 4-(5-(4-(4-(cyclopropylmethyl)-4H-1,2,4-triazol-3-yl)phenyl)pyridin-3-yl)-7-methyl-8,9-dihydropyrido[3′,2′:4,5]pyrrolo[1,2-a]pyrazin-6(7H)-one] were 10 to 100 nM and 1000 to 2500 nM.
On to `CN1CCn2c(cc3c(-c4cncc(-c5ccc(-c6nncn6C(C)(C)C)cc5)c4)ccnc32)C1=O` [Example 377, 4-(5-(4-(4-(tert-butyl)-4H-1,2,4-triazol-3-yl)phenyl)pyridin-3-yl)-7-methyl-8,9-dihydropyrido[3′,2′:4,5]pyrrolo[1,2-a]pyrazin-6(7H)-one], for which the results for the IC50 in assay [1] and in assay [2] were 1 to 10 nM and 5 to 100 nM, respectively.
Taken in the same sequence, the figures for `CC(C)n1cnnc1-c1ccc(-c2cncc(-c3ccnc4[nH]c(C(=O)NCc5cccnc5)cc34)c2)cc1` [Example 378, 4-(5-(4-(4-isopropyl-4H-1,2,4-triazol-3-yl)phenyl)pyridin-3-yl)-N-(pyridin-3-ylmethyl)-1H-pyrrolo[2,3-b]pyridine-2-carboxamide] were 10 to 100 nM and 100 to 1000 nM.
Taken in the same sequence, the figures for `O=C(NCc1cccc2c1B(O)OC2)c1cc2c(-c3cncc(-c4ccc(N5CCCC5=O)cc4)c3)ccnc2[nH]1` [Example 379, N-((1-hydroxy-1,3-dihydrobenzo[c][1,2]oxaborol-7-yl)methyl)-4-(5-(4-(2-oxopyrrolidin-1-yl)phenyl)pyridin-3-yl)-1H-pyrrolo[2,3-b]pyridine-2-carboxamide] were 10 to 100 nM and 5 to 100 nM.
On the same counts, the results for `CC(C)c1cncc(-c2ccc(-c3cncc(-c4ccnc5c4cc4n5CCN(C)C4=O)c3)cc2)c1` [Example 380, 4-(5-(4-(5-isopropylpyridin-3-yl)phenyl)pyridin-3-yl)-7-methyl-8,9-dihydropyrido[3′,2′:4,5]pyrrolo[1,2-a]pyrazin-6(7H)-one] are 2500 to 5000 nM and 1000 to 2500 nM.
As for `CN1CCn2c(cc3c(-c4cncc(-c5ccc(C(=O)N6CC(C)(C)C6)cc5)c4)ccnc32)C1=O` [Example 381, 4-(5-(4-(3,3-dimethylazetidine-1-carbonyl)phenyl)pyridin-3-yl)-7-methyl-8,9-dihydropyrido[3′,2′:4,5]pyrrolo[1,2-a]pyrazin-6(7H)-one], the concentration for half-maximal inhibition (IC50) in assay [1] and in assay [2] was 100 to 1000 nM throughout.
As for `CN1CCn2c(cc3c(-c4cncc(-c5ccc(C(=O)N6C7CCC6CC7)cc5)c4)ccnc32)C1=O` [Example 382, 4-(5-(4-(7-azabicyclo[2.2.1]heptane-7-carbonyl)phenyl)pyridin-3-yl)-7-methyl-8,9-dihydropyrido[3′,2′:4,5]pyrrolo[1,2-a]pyrazin-6(7H)-one], the IC50 in assay [1] and in assay [2] was 100 to 1000 nM throughout.
On to `CC(C)Cn1cnnc1-c1ccc(-c2cncc(-c3ccnc4c3cc3n4CCN(C)C3=O)c2)cc1` [Example 383, 4-(5-(4-(4-isobutyl-4H-1,2,4-triazol-3-yl)phenyl)pyridin-3-yl)-7-methyl-8,9-dihydropyrido[3′,2′:4,5]pyrrolo[1,2-a]pyrazin-6(7H)-one], for which the IC50 in assay [1] lay in the range of 10 to 100 nM; in assay [2] it was 100 to 1000 nM.
For `CC(C)n1cnnc1-c1ccc(-c2cncc(-c3ccnc4c3cc3n4CCN(Cc4ccncc4)C3=O)c2)cc1` [Example 385, 4-(5-(4-(4-isopropyl-4H-1,2,4-triazol-3-yl)phenyl)pyridin-3-yl)-7-(pyridin-4-ylmethyl)-8,9-dihydropyrido[3′,2′:4,5]pyrrolo[1,2-a]pyrazin-6(7H)-one], the concentration for half-maximal inhibition (IC50) in assay [1] lay within 1 to 10 nM; in assay [2] it was 100 to 1000 nM.
Taken in the same sequence, the figures for `CN1CCn2c(cc3c(-c4cncc(-c5ccc(N6CCCS6(=O)=O)cc5)c4)ccnc32)C1=O` [Example 386, 4-(5-(4-(1,1-dioxidoisothiazolidin-2-yl)phenyl)pyridin-3-yl)-7-methyl-8,9-dihydropyrido[3′,2′:4,5]pyrrolo[1,2-a]pyrazin-6(7H)-one] were 100 to 1000 nM and 100 to 1000 nM.
Turning to `CC(C)n1nnnc1-c1ccc(-c2cncc(-c3ccnc4c3cc3n4CCN(C)C3=O)c2)cc1` [Example 387, 4-(5-(4-(1-isopropyl-1H-tetrazol-5-yl)phenyl)pyridin-3-yl)-7-methyl-8,9-dihydropyrido[3′,2′:4,5]pyrrolo[1,2-a]pyrazin-6(7H)-one], the IC50 in assay [1] was 1 to 10 nM; in assay [2], 100 to 1000 nM.
On to `CC(C)n1cnnc1-c1ccc(-c2cncc(-c3ccnc4[nH]c(C(=O)NCCCCCCCCNC(=O)COc5cccc6c5C(=O)N(C5CCC(=O)NC5=O)C6=O)cc34)c2)cc1` (centres unmarked) [Example 388, N-(8-(2-((2-(2,6-dioxopiperidin-3-yl)-1,3-dioxoisoindolin-4-yl)oxy)acetamido)octyl)-4-(5-(4-(4-isopropyl-4H-1,2,4-triazol-3-yl)phenyl)pyridin-3-yl)-1H-pyrrolo[2,3-b]pyridine-2-carboxamide], for which the IC50 in assay [1] and in assay [2] was 100 to 1000 nM each time.
Turning to `CC(C)n1cnnc1-c1ccc(-c2cncc(-c3ccnc4[nH]c(C(=O)NCCOCCOCCOCCNC(=O)COc5cccc6c5C(=O)N(C5CCC(=O)NC5=O)C6=O)cc34)c2)cc1` (centres unmarked) [Example 389, N-(1-((2-(2,6-dioxopiperidin-3-yl)-1,3-dioxoisoindolin-4-yl)oxy)-2-oxo-6,9,12-trioxa-3-azatetradecan-14-yl)-4-(5-(4-(4-isopropyl-4H-1,2,4-triazol-3-yl)phenyl)pyridin-3-yl)-1H-pyrrolo[2,3-b]pyridine-2-carboxamide], the values for the IC50 in assay [1] and in assay [2] were 100 to 1000 nM and below 5000 nM, respectively.
Taken in the same sequence, the figures for `Cc1nc(CNC(=O)c2cc3c(-c4cncc(-c5ccc(N6CCCC6=O)cc5)c4)ccnc3[nH]2)oc1C` [Example 390] were 10 to 100 nM and 5 to 100 nM.
Turning to `CC(C)Cn1cnnc1-c1ccc(-c2cc(-c3ccnc4c3cc3n4CCN(CC4CC4)C3=O)cnc2N)cc1` [Example 391, 4-(6-amino-5-(4-(4-isobutyl-4H-1,2,4-triazol-3-yl)phenyl)pyridin-3-yl)-7-(cyclopropylmethyl)-8,9-dihydropyrido[3′,2′:4,5]pyrrolo[1,2-a]pyrazin-6(7H)-one], the figures for the 50% inhibitory concentration (IC50) in assay [1] and in assay [2] were 10 to 100 nM and 1000 to 2500 nM, respectively.
With `CC(C)n1cnnc1-c1ccc(-c2cc(-c3ccnc4oc(C(=O)NCC5CC5)cc34)cnc2N)cc1` [Example 392, 4-(6-amino-5-(4-(4-isopropyl-4H-1,2,4-triazol-3-yl)phenyl)pyridin-3-yl)-N-(cyclopropylmethyl)furo[2,3-b]pyridine-2-carboxamide], the IC50 in assay [1] was 1 to 10 nM; in assay [2], 100 to 1000 nM.
In the case of `O=C(COc1cccc2c1C(=O)N(C1CCC(=O)NC1=O)C2=O)NCCOCCOCCOCCNC(=O)c1cc2c(-c3cncc(-c4ccc(N5CCCC5=O)cc4)c3)ccnc2[nH]1` (centres unmarked) [Example 393, N-(1-((2-(2,6-dioxopiperidin-3-yl)-1,3-dioxoisoindolin-4-yl)oxy)-2-oxo-6,9,12-trioxa-3-azatetradecan-14-yl)-4-(5-(4-(2-oxopyrrolidin-1-yl)phenyl)pyridin-3-yl)-1H-pyrrolo[2,3-b]pyridine-2-carboxamide], the IC50 in assay [1] was in the range of 100 to 1000 nM; in assay [2] it was 1000 to 2500 nM.
As for `CN1CCn2c(cc3c(-c4cncc(-c5ccc(-c6nncn6C6CC(F)(F)C6)cc5)c4)ccnc32)C1=O` [Example 394, 4-(5-(4-(4-(3,3-difluorocyclobutyl)-4H-1,2,4-triazol-3-yl)phenyl)pyridin-3-yl)-7-methyl-8,9-dihydropyrido[3′,2′:4,5]pyrrolo[1,2-a]pyrazin-6(7H)-one], the IC50 in assay [1] was in the range of 100 to 1000 nM; in assay [2], 2500 to 5000 nM.
